# Like-named read-outs stand apart in the source and are kept apart here.
# Assays:
# sigma 1 receptors = target: T1, sigma 1 receptors (Cavia porcellus, UniProt Q60492); test: Displacement of tritiated-pentazocine from guinea-pig cerebral cortex; format: binding
# T1 construct: displacement assay of tritiated-pentazocine from guinea-pig cerebral cortex; from tissue; host or cells: guinea-pig cerebral cortex
# From the text: (§1) It was specifically designed to provide information not only on potential limitations of drug candidates, but also for off-target activity identification. […] In a further extension of this study, functional studies were done on most of these receptors.
# M1 mAChR [1] = target: T2, M1 mAChR (Rattus norvegicus, UniProt P08482); conditions: [3H]PZ, rat cortical membranes
# T2 sequence (P08482 1-460): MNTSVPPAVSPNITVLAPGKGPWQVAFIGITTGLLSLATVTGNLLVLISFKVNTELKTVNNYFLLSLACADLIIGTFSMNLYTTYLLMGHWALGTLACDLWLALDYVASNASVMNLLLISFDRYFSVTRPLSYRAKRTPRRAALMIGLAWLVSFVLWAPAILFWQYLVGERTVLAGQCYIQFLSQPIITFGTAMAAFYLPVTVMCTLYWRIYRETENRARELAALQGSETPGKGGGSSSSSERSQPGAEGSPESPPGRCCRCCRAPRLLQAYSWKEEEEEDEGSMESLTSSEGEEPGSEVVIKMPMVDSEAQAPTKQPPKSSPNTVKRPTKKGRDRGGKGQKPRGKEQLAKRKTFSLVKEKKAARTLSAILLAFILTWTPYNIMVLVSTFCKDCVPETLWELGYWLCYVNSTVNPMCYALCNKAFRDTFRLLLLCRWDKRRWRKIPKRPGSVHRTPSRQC
# M1 mAChR [2] = target: T2, M1 mAChR; test: biochemical
# sigma 2 receptor = sigma 2 receptor (Homo sapiens, UniProt Q5BJF2); test: Binding to sigma 2 receptor; conditions: 0.1 nM-10 μM
# Sequence of sigma 2 receptor (Q5BJF2 whole entry, species assumed): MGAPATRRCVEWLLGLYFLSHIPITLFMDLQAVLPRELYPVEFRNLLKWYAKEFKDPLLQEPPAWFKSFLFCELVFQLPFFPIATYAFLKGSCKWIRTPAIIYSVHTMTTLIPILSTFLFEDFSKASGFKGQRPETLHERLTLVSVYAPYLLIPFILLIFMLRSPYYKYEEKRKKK
# From the text: as §1
# 5HT2A receptor = 5HT2A receptor (Homo sapiens, UniProt P28223); test: Functional study, agonist or antagonist
# Sequence of 5HT2A receptor (P28223 whole entry): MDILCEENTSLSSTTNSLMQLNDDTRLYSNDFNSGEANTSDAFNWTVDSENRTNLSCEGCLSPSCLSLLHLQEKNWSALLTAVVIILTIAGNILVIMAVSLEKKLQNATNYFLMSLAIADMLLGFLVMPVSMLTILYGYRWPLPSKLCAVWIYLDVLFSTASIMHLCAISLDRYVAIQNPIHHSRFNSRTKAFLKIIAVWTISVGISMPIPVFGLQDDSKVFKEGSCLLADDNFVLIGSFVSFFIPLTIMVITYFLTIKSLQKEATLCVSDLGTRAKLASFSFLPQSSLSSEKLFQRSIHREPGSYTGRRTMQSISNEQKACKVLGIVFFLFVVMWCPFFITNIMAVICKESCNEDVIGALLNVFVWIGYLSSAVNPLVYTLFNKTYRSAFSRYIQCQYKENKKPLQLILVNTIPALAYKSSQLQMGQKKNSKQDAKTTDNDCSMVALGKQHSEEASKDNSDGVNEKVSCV
# From the text: as §1
# Histamine 2 Receptor = Histamine 2 Receptor (Homo sapiens, UniProt P25021); test: Functional study, agonist or antagonist
# Sequence of Histamine 2 Receptor (P25021 whole entry): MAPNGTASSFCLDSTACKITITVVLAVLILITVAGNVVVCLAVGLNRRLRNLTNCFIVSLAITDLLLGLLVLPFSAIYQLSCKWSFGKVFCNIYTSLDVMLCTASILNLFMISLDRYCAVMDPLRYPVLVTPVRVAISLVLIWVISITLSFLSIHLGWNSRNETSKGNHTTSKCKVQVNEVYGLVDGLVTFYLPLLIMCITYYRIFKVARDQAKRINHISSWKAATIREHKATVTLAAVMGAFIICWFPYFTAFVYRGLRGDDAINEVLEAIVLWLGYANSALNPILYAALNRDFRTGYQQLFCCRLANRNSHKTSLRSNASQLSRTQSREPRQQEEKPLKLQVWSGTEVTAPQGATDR
# From the text: as §1
# 5HT2C Receptor = 5HT2C Receptor (Homo sapiens, UniProt P28335); test: Functional study, agonist or antagonist
# Sequence of 5HT2C Receptor (P28335 33-458): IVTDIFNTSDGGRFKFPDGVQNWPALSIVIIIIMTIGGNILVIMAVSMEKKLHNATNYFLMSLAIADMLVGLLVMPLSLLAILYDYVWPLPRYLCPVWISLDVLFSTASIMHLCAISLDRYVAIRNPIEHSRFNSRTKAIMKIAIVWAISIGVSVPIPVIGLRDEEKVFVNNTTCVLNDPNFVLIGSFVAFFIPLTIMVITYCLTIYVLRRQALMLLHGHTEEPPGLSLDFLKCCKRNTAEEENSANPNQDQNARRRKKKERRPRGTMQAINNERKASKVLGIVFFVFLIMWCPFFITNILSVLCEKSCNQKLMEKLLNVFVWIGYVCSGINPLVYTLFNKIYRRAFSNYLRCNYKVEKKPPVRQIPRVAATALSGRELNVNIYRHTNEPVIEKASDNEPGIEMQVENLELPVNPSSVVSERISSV
# From the text: as §1
# α-4β2 nicotinic receptor = α-4β2 nicotinic receptor (Homo sapiens, UniProt P17787+P43681); test: Binding to α4β2 nicotinic receptor; conditions: 0.1 nM-10 μM
# Sequence of α-4β2 nicotinic receptor (P43681 29-627 limits assumed): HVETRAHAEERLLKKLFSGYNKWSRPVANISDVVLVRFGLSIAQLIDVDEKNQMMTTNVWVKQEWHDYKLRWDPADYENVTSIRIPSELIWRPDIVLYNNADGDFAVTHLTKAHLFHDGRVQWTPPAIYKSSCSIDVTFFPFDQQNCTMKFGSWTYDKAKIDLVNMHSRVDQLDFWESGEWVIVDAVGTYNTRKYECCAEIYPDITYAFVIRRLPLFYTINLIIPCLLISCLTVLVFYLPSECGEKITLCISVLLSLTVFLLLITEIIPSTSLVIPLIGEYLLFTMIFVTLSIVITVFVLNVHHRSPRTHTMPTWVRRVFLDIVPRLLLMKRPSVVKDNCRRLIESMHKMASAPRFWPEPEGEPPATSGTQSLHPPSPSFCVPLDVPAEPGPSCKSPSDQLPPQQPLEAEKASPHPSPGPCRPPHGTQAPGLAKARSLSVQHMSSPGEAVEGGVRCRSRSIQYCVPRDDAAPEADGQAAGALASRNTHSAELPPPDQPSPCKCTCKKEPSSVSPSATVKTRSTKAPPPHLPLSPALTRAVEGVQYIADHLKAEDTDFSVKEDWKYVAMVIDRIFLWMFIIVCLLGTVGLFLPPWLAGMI
# Sequence of α-4β2 nicotinic receptor (P17787 26-502): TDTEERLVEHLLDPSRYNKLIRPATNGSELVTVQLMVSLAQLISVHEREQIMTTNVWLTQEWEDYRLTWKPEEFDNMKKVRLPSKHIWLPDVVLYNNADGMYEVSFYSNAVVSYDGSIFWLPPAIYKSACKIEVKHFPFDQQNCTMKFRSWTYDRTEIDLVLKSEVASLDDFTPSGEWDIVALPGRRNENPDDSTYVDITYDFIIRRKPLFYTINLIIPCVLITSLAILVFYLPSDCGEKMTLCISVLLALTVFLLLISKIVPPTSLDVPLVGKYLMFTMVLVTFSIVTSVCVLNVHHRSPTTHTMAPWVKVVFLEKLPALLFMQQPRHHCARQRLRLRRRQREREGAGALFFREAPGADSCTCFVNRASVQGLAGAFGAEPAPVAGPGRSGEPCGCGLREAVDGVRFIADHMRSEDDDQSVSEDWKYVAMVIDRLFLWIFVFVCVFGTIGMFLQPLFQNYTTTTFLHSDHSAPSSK
# From the text: as §1
# T1 sequence (Q60492 whole entry): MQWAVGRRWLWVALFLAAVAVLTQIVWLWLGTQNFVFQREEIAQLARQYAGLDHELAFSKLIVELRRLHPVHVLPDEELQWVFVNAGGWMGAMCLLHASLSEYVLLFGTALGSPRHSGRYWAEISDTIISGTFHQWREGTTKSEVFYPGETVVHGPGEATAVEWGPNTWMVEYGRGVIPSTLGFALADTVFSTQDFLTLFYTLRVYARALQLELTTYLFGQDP
structure (smiles),measurement,setting,value
"C[C@@H]1SC2(CCN(C)CC2)CN1C(=O)CCc1c[nH]c2ccccc12 (single isomer, unassigned) [AF710B]",Ki,sigma 1 receptors; read-out: sigma 1 receptors KH,1.4 nM
same,Ki,sigma 1 receptors; read-out: sigma 1 receptors KL,248 nM
same,fraction of higher affinity binding site,M1 mAChR [1],29%
same,fraction of lower affinity binding site,M1 mAChR [1],71%
same,Ki,M1 mAChR [1]; read-out: lower affinity binding site KL,41000 nM
same,Ki,M1 mAChR [2],0.046 nM
same,Ki,"M1 mAChR [2]; KH, brucine experiment, without brucine",0.015 nM
same,Ki,"M1 mAChR [2]; KH, with brucine 0.1 mM",0.034 nM
same,Ki,"M1 mAChR [2]; KL, brucine experiment, without brucine",34000 nM
same,Ki,"M1 mAChR [2]; KL, with brucine 0.1 mM",15000 nM
same,binding to sigma 2 receptor,sigma 2 receptor,does not bind
same,agonist or antagonist activity on 5HT2A receptor,5HT2A receptor,inactive
same,agonist or antagonist activity on histamine 2 receptor,Histamine 2 Receptor,inactive
same,agonist or antagonist activity on 5HT2C receptor,5HT2C Receptor,inactive
same,binding to α-4β2 nicotinic receptor,α-4β2 nicotinic receptor,does not bind

# — US9034891B2, “Bicyclic heterocyclic spiro compounds” (ISRAEL INSTITUTE FOR BIOLOGICAL RESEARCH, priority 2009, dated 2015)
